According to patent publication US20240308991A1, “PROCESS FOR THE SYNTHESIS OF REACTIVE CAR[…] ANTIGEN […] C[…] A CARRIER MATERIAL” (KORANEX CAPITAL, priority 2021, published 2024):

melting point: 230 to 232 °C
SMILES: C=CCO[C@H]1O[C@H](CO)[C@H](O)[C@H](O[C@@H]2O[C@H](CO)[C@H](O)[C@H](O)[C@H]2O)[C@H]1NC(C)=O
